Measurements as given in patent publication US8952024B2, “Herbicidal pyrimidone derivatives” (E I du Pont de Nemours and Company, priority 2009, dated 2015).

Legend:
Format in all cases: in vivo
corn (Zea mays) = assay: Test B pre-/postemergence plant response; conditions: Postemergence
How it was run: (§1)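 Visually scored on a 0 to 100 scale after 13 to 15 days in greenhouse versus controls. Treatments were preemergence on seeded loam/sand soil and postemergence on 1- to 4-leaf plants.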

[1] = system: Surinam grass (Brachiaria decumbens); assay: Test B pre-/postemergence plant response; conditions: Postemergence
How it was run: as §1

[2] = system: ragweed (common ragweed, Ambrosia elatior); assay: Test B pre-/postemergence plant response; conditions: Postemergence
How it was run: as §1

[3] = system: goosegrass (Eleusine indica); assay: Test B pre-/postemergence plant response; conditions: Postemergence
How it was run: as §1

[4] = system: giant foxtail (Setaria faberii); assay: Test B pre-/postemergence plant response; conditions: Postemergence
How it was run: as §1

[5] = system: lambsquarters (Chenopodium album); assay: Test B pre-/postemergence plant response; conditions: Postemergence
How it was run: as §1

[6] = system: pigweed (Amaranthus retroflexus); assay: Test B pre-/postemergence plant response; conditions: Postemergence
How it was run: as §1

[7] = system: blackgrass (Alopecurus myosuroides); assay: Test B pre-/postemergence plant response; conditions: Postemergence
How it was run: as §1

wild oat (Avena fatua) = assay: Test B pre-/postemergence plant response; conditions: Postemergence
How it was run: as §1

[8] = system: green foxtail (Setaria viridis); assay: Test B pre-/postemergence plant response; conditions: Postemergence
How it was run: as §1

[9] = system: johnsongrass (Sorghum halepense); assay: Test B pre-/postemergence plant response; conditions: Postemergence
How it was run: as §1

rice (Oryza sativa) = assay: Test B flooded paddy test; conditions: for Plant response rating, Flood, Rice: 250 g ai/ha, flooded paddy test, visual rating on 0 to 100 scale (0 no effect, 100 complete control) after 13 to 15 days; for Plant response rating, Rice: Flood (flooded paddy test), 13 to 15 days; for Rice plant response rating: Flood, 31 g ai/ha, scale 0 to 100 (0 no effect, 100 complete control)
How it was run: (§2)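 Visual scores run from 0 (no effect) to 100 (complete control), assigned by comparison with controls 13 to 15 days after treatment. Test compounds went straight into water standing 3 cm above the soil, around plants at the 2-leaf stage kept in a greenhouse.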

[10] = system: umbrella sedge (Cyperus difformis); assay: Test B flooded paddy test; conditions: for Plant response rating, Flood, Sedge, Umbrella: 250 g ai/ha, flooded paddy test, visual rating on 0 to 100 scale (0 no effect, 100 complete control) after 13 to 15 days; for Plant response rating, Sedge, Umbrella: Flood (flooded paddy test), 13 to 15 days; for Sedge, Umbrella plant response rating: Flood, 31 g ai/ha, scale 0 to 100 (0 no effect, 100 complete control)
How it was run: as §2

[11] = 31 g ai/ha, 0 to 100 scale (0 no effect, 100 complete control)
[12] = 62 g ai/ha, scale 0 to 100 (0 no effect, 100 complete control)
[13] = 125 g ai/ha, scale 0 (no effect) to 100 (complete control), 13 to 15 days
[14] = 250 g ai/ha, scale 0 to 100 (0 no effect, 100 complete control), 13 to 15 days
[15] = 62 g ai/ha, scale of 0 to 100 where 0 is no effect and 100 is complete control
[16] = 125 g ai/ha, scale 0 to 100, 0 is no effect, 100 is complete control

## COCCCn1c(-c2cccc(F)c2)ncc(C(=O)C2=C(O)C3CCC(C3)C2=O)c1=O (stereo not drawn) [Compound 238]
Corn (Zea mays); [11]
  Plant response rating, Corn: 80
Corn (Zea mays); [12]
  Plant response rating, Corn: 80
Corn (Zea mays); [13]
  Plant response rating, Corn: 95
Corn (Zea mays); [14]
  Plant response rating, Corn: 95
[1]; [11]
  Plant response rating, Surinam Grass: 95
[1]; [12]
  Plant response rating, Surinam Grass: 100
[1]; [13]
  Plant response rating, Surinam Grass: 100
[1]; [14]
  Plant response rating, Surinam Grass: 100
[2]; [11]
  Plant response rating, Ragweed: 100
[2]; [12]
  Plant response rating, Ragweed: 100
[2]; [13]
  Plant response rating, Ragweed: 100
[2]; [14]
  Plant response rating, Ragweed: 100
[3]; [11]
  Plant response rating, Goosegrass: 95
[3]; [12]
  Plant response rating, Goosegrass: 98
[3]; [13]
  Plant response rating, Goosegrass: 98
[3]; [14]
  Plant response rating, Goosegrass: 98
[4]; [11]
  Plant response rating, Foxtail, Giant: 100
[4]; [12]
  Plant response rating, Foxtail, Giant: 100
[4]; [13]
  Plant response rating, Foxtail, Giant: 100
[4]; [14]
  Plant response rating, Foxtail, Giant: 100
[5]; [11]
  Plant response rating, Lambsquarters: 100
[5]; [12]
  Plant response rating, Lambsquarters: 100
[5]; [13]
  Plant response rating, Lambsquarters: 100
[5]; [14]
  Plant response rating, Lambsquarters: 100
[6]; [11]
  Plant response rating, Pigweed: 100
[6]; [12]
  Plant response rating, Pigweed: 100
[6]; [13]
  Plant response rating, Pigweed: 100
[6]; [14]
  Plant response rating, Pigweed: 100
[7]; [11]
  Plant response rating, Blackgrass: 40
[7]; [12]
  Plant response rating, Blackgrass: 60
[7]; [13]
  Plant response rating, Blackgrass: 60
[7]; [14]
  Plant response rating, Blackgrass: 70
Wild oat (Avena fatua); [11]
  Plant response rating, Oat, Wild: 30
Wild oat (Avena fatua); [12]
  Plant response rating, Oat, Wild: 35
Wild oat (Avena fatua); [13]
  Plant response rating, Oat, Wild: 50
Wild oat (Avena fatua); [14]
  Plant response rating, Oat, Wild: 60
[8]; [11]
  Plant response rating, Foxtail, Green: 85
[8]; [12]
  Plant response rating, Foxtail, Green: 95
[8]; [13]
  Plant response rating, Foxtail, Green: 98
[8]; [14]
  Plant response rating, Foxtail, Green: 98
[9]; [11]
  Plant response rating, Johnsongrass: 60
[9]; [13]
  Plant response rating, Johnsongrass: 98
[9]; [14]
  Plant response rating, Johnsongrass: 100
Rice (Oryza sativa)
  Plant response rating, Flood, Rice: 0
  Rice plant response rating: 0
Rice (Oryza sativa); [15]
  Plant response rating, Rice: 0
Rice (Oryza sativa); [16]
  Plant response rating, Rice: 0
[10]
  Plant response rating, Flood, Sedge, Umbrella: 80
  Sedge, Umbrella plant response rating: 0
[10]; [15]
  Plant response rating, Sedge, Umbrella: 0
[10]; [16]
  Plant response rating, Sedge, Umbrella: 65

## CCn1c(-c2ccccc2)ncc(C(=O)C2=C(O)C3CCC(C3)C2=O)c1=O (stereo not drawn) [Compound 239]
Corn (Zea mays); [11]
  Plant response rating, Corn: 5
Corn (Zea mays); [12]
  Plant response rating, Corn: 45
Corn (Zea mays); [13]
  Plant response rating, Corn: 45
Corn (Zea mays); [14]
  Plant response rating, Corn: 75
[1]; [11]
  Plant response rating, Surinam Grass: 25
[1]; [12]
  Plant response rating, Surinam Grass: 35
[1]; [13]
  Plant response rating, Surinam Grass: 45
[1]; [14]
  Plant response rating, Surinam Grass: 75
[2]; [11]
  Plant response rating, Ragweed: 95
[2]; [12]
  Plant response rating, Ragweed: 98
[2]; [13]
  Plant response rating, Ragweed: 100
[2]; [14]
  Plant response rating, Ragweed: 100
[3]; [11]
  Plant response rating, Goosegrass: 80
[3]; [12]
  Plant response rating, Goosegrass: 98
[3]; [13]
  Plant response rating, Goosegrass: 98
[3]; [14]
  Plant response rating, Goosegrass: 100
[4]; [11]
  Plant response rating, Foxtail, Giant: 75
[4]; [12]
  Plant response rating, Foxtail, Giant: 85
[4]; [13]
  Plant response rating, Foxtail, Giant: 90
[4]; [14]
  Plant response rating, Foxtail, Giant: 98
[5]; [11]
  Plant response rating, Lambsquarters: 98
[5]; [12]
  Plant response rating, Lambsquarters: 98
[5]; [13]
  Plant response rating, Lambsquarters: 100
[5]; [14]
  Plant response rating, Lambsquarters: 100
[6]; [11]
  Plant response rating, Pigweed: 95
[6]; [12]
  Plant response rating, Pigweed: 98
[6]; [13]
  Plant response rating, Pigweed: 98
[6]; [14]
  Plant response rating, Pigweed: 100
[7]; [11]
  Plant response rating, Blackgrass: 5
[7]; [12]
  Plant response rating, Blackgrass: 5
[7]; [13]
  Plant response rating, Blackgrass: 30
[7]; [14]
  Plant response rating, Blackgrass: 50
Wild oat (Avena fatua); [11]
  Plant response rating, Oat, Wild: 0
Wild oat (Avena fatua); [12]
  Plant response rating, Oat, Wild: 5
Wild oat (Avena fatua); [13]
  Plant response rating, Oat, Wild: 5
Wild oat (Avena fatua); [14]
  Plant response rating, Oat, Wild: 30
[8]; [11]
  Plant response rating, Foxtail, Green: 80
[8]; [12]
  Plant response rating, Foxtail, Green: 85
[8]; [13]
  Plant response rating, Foxtail, Green: 90
[8]; [14]
  Plant response rating, Foxtail, Green: 95
[9]; [11]
  Plant response rating, Johnsongrass: 0
[9]; [12]
  Plant response rating, Johnsongrass: 20
[9]; [13]
  Plant response rating, Johnsongrass: 60
Rice (Oryza sativa)
  Plant response rating, Flood, Rice: 0
  Rice plant response rating: 0
Rice (Oryza sativa); [15]
  Plant response rating, Rice: 0
Rice (Oryza sativa); [16]
  Plant response rating, Rice: 0
[10]
  Plant response rating, Flood, Sedge, Umbrella: 75
  Sedge, Umbrella plant response rating: 0
[10]; [15]
  Plant response rating, Sedge, Umbrella: 0
[10]; [16]
  Plant response rating, Sedge, Umbrella: 40
